According to the supplement of paper PMC13380429:

Key:
Details in all cases: 72 h
HepG2 [1] = assay: relative viability EC50 (midpoint between 100% and the lowest measured viability); higher = less toxic
Vero E6 [2] = assay: as above
U2OS [3] = assay: as above
Calu-3 [4] = assay: as above
Caco-2 [5] = assay: as above
HepG2 [6] = assay: cell viability relative to DMSO; higher = less toxic
Vero E6 [7] = assay: as above
U2OS [8] = assay: as above
Calu-3 [9] = assay: as above
Caco-2 [10] = assay: as above
HepG2 [11] = assay: drug sensitivity score (DSS) for viability; higher = more toxic; extreme values may be limits of the assay
Vero E6 [12] = assay: as above
U2OS [13] = assay: as above
Calu-3 [14] = assay: as above
Caco-2 [15] = assay: as above

CCOc1ccc(Nc2nc(-c3c(C)nc4ccccn34)cs2)cc1 [JK-184]
relative viability EC50 (HepG2 [1]): 1680 nM
relative viability EC50 (Vero E6 [2]): 152 nM
relative viability EC50 (U2OS [3]): 209 nM
relative viability EC50 (Calu-3 [4]): 715 nM
relative viability EC50 (Caco-2 [5]): 578 nM
cell viability (HepG2 [6]; 1 nM): 94.9%
cell viability (HepG2 [6]; 10 nM): 99.5%
cell viability (HepG2 [6]; 100 nM): 90.6%
cell viability (HepG2 [6]; 1000 nM): 86.9%
cell viability (HepG2 [6]; 10000 nM): 40.1%
cell viability (Vero E6 [7]; 1 nM): 98.3%
cell viability (Vero E6 [7]; 10 nM): 97.6%
cell viability (Vero E6 [7]; 100 nM): 77.8%
cell viability (Vero E6 [7]; 1000 nM): 31.3%
cell viability (Vero E6 [7]; 10000 nM): 29.5%
cell viability (U2OS [8]; 1 nM): 106%
cell viability (U2OS [8]; 10 nM): 100%
cell viability (U2OS [8]; 100 nM): 79.9%
cell viability (U2OS [8]; 1000 nM): 26.9%
cell viability (U2OS [8]; 10000 nM): 19.7%
cell viability (Calu-3 [9]; 1 nM): 101%
cell viability (Calu-3 [9]; 10 nM): 90.5%
cell viability (Calu-3 [9]; 100 nM): 103%
cell viability (Calu-3 [9]; 1000 nM): 57.6%
cell viability (Calu-3 [9]; 10000 nM): 39.4%
cell viability (Caco-2 [10]; 1 nM): 102%
cell viability (Caco-2 [10]; 10 nM): 96.9%
cell viability (Caco-2 [10]; 100 nM): 91.3%
cell viability (Caco-2 [10]; 1000 nM): 57.4%
cell viability (Caco-2 [10]; 10000 nM): 33.2%
drug sensitivity score (HepG2 [11]): 5.3
drug sensitivity score (Vero E6 [12]): 15.5
drug sensitivity score (U2OS [13]): 16
drug sensitivity score (Calu-3 [14]): 8.3
drug sensitivity score (Caco-2 [15]): 9.2

O=C1Nc2ccccc2C12OCC1(CO2)COC2(OC1)C(=O)Nc1ccccc12 (stereo not given) [JW-67]
relative viability EC50 (HepG2 [1]): > 10000 nM
relative viability EC50 (Vero E6 [2]): > 10000 nM
relative viability EC50 (U2OS [3]): > 10000 nM
relative viability EC50 (Calu-3 [4]): > 10000 nM
relative viability EC50 (Caco-2 [5]): > 10000 nM
cell viability (HepG2 [6]; 1 nM): 97.1%
cell viability (HepG2 [6]; 10 nM): 98.6%
cell viability (HepG2 [6]; 100 nM): 93.6%
cell viability (HepG2 [6]; 1000 nM): 98.4%
cell viability (HepG2 [6]; 10000 nM): 105%
cell viability (Vero E6 [7]; 1 nM): 88.4%
cell viability (Vero E6 [7]; 10 nM): 103%
cell viability (Vero E6 [7]; 100 nM): 91.2%
cell viability (Vero E6 [7]; 1000 nM): 90.5%
cell viability (Vero E6 [7]; 10000 nM): 86%
cell viability (U2OS [8]; 1 nM): 97.6%
cell viability (U2OS [8]; 10 nM): 97.5%
cell viability (U2OS [8]; 100 nM): 102%
cell viability (U2OS [8]; 1000 nM): 94.6%
cell viability (U2OS [8]; 10000 nM): 92.5%
cell viability (Calu-3 [9]; 1 nM): 90.8%
cell viability (Calu-3 [9]; 10 nM): 92.1%
cell viability (Calu-3 [9]; 100 nM): 103%
cell viability (Calu-3 [9]; 1000 nM): 87.2%
cell viability (Calu-3 [9]; 10000 nM): 85.3%
cell viability (Caco-2 [10]; 1 nM): 87.2%
cell viability (Caco-2 [10]; 10 nM): 92.5%
cell viability (Caco-2 [10]; 100 nM): 91.8%
cell viability (Caco-2 [10]; 1000 nM): 93.2%
cell viability (Caco-2 [10]; 10000 nM): 88.1%
drug sensitivity score (HepG2 [11]): 0
drug sensitivity score (Vero E6 [12]): 0.1
drug sensitivity score (U2OS [13]): 0
drug sensitivity score (Calu-3 [14]): 0.1
drug sensitivity score (Caco-2 [15]): 0

CC(C)n1nc(-c2ccc3oc(N)nc3c2)c2c(N)ncnc21 [MLN0128]
relative viability EC50 (HepG2 [1]): 44.9 nM
relative viability EC50 (Vero E6 [2]): 85.5 nM
relative viability EC50 (U2OS [3]): 49 nM
relative viability EC50 (Calu-3 [4]): 9.5 nM
relative viability EC50 (Caco-2 [5]): 30.9 nM
cell viability (HepG2 [6]; 1 nM): 106%
cell viability (HepG2 [6]; 10 nM): 91.9%
cell viability (HepG2 [6]; 100 nM): 32.4%
cell viability (HepG2 [6]; 1000 nM): 26.6%
cell viability (HepG2 [6]; 10000 nM): 12.9%
cell viability (Vero E6 [7]; 1 nM): 97.9%
cell viability (Vero E6 [7]; 10 nM): 93.5%
cell viability (Vero E6 [7]; 100 nM): 48.7%
cell viability (Vero E6 [7]; 1000 nM): 35.6%
cell viability (Vero E6 [7]; 10000 nM): 16.5%
cell viability (U2OS [8]; 1 nM): 100%
cell viability (U2OS [8]; 10 nM): 92.1%
cell viability (U2OS [8]; 100 nM): 35%
cell viability (U2OS [8]; 1000 nM): 18.4%
cell viability (U2OS [8]; 10000 nM): 12%
cell viability (Calu-3 [9]; 1 nM): 88.6%
cell viability (Calu-3 [9]; 10 nM): 61.2%
cell viability (Calu-3 [9]; 100 nM): 31.5%
cell viability (Calu-3 [9]; 1000 nM): 28.4%
cell viability (Calu-3 [9]; 10000 nM): 22.8%
cell viability (Caco-2 [10]; 1 nM): 102%
cell viability (Caco-2 [10]; 10 nM): 72%
cell viability (Caco-2 [10]; 100 nM): 45.2%
cell viability (Caco-2 [10]; 1000 nM): 26.1%
cell viability (Caco-2 [10]; 10000 nM): 20.1%
drug sensitivity score (HepG2 [11]): 24.6
drug sensitivity score (Vero E6 [12]): 19.7
drug sensitivity score (U2OS [13]): 24.4
drug sensitivity score (Calu-3 [14]): 27.5
drug sensitivity score (Caco-2 [15]): 23.2

OC[C@H]1O[C@@H](n2cnc3c(NC4CCCC4)ncnc32)[C@H](O)[C@@H]1O [N6-cyclopentyladenosine]
relative viability EC50 (HepG2 [1]): > 10000 nM
relative viability EC50 (Vero E6 [2]): > 10000 nM
relative viability EC50 (U2OS [3]): > 10000 nM
relative viability EC50 (Calu-3 [4]): > 10000 nM
relative viability EC50 (Caco-2 [5]): > 10000 nM
cell viability (HepG2 [6]; 1 nM): 112%
cell viability (HepG2 [6]; 10 nM): 95.6%
cell viability (HepG2 [6]; 100 nM): 99.1%
cell viability (HepG2 [6]; 1000 nM): 92.7%
cell viability (HepG2 [6]; 10000 nM): 100%
cell viability (Vero E6 [7]; 1 nM): 92.4%
cell viability (Vero E6 [7]; 10 nM): 91.4%
cell viability (Vero E6 [7]; 100 nM): 92.2%
cell viability (Vero E6 [7]; 1000 nM): 93.9%
cell viability (Vero E6 [7]; 10000 nM): 102%
cell viability (U2OS [8]; 1 nM): 97.7%
cell viability (U2OS [8]; 10 nM): 98.8%
cell viability (U2OS [8]; 100 nM): 98.2%
cell viability (U2OS [8]; 1000 nM): 102%
cell viability (U2OS [8]; 10000 nM): 112%
cell viability (Calu-3 [9]; 1 nM): 108%
cell viability (Calu-3 [9]; 10 nM): 96.6%
cell viability (Calu-3 [9]; 100 nM): 94%
cell viability (Calu-3 [9]; 1000 nM): 102%
cell viability (Calu-3 [9]; 10000 nM): 100%
cell viability (Caco-2 [10]; 1 nM): 92.8%
cell viability (Caco-2 [10]; 10 nM): 99.7%
cell viability (Caco-2 [10]; 100 nM): 109%
cell viability (Caco-2 [10]; 1000 nM): 104%
cell viability (Caco-2 [10]; 10000 nM): 116%
drug sensitivity score (HepG2 [11]): 0
drug sensitivity score (Vero E6 [12]): 0
drug sensitivity score (U2OS [13]): 0
drug sensitivity score (Calu-3 [14]): 0
drug sensitivity score (Caco-2 [15]): 0

COc1ccccc1N1CCN(CCCCN2C(=O)c3ccccc3C2=O)CC1 [NAN-190]
relative viability EC50 (HepG2 [1]): > 10000 nM
relative viability EC50 (Vero E6 [2]): > 10000 nM
relative viability EC50 (U2OS [3]): > 10000 nM
relative viability EC50 (Calu-3 [4]): > 10000 nM
relative viability EC50 (Caco-2 [5]): > 10000 nM
cell viability (HepG2 [6]; 1 nM): 91.6%
cell viability (HepG2 [6]; 10 nM): 108%
cell viability (HepG2 [6]; 100 nM): 94%
cell viability (HepG2 [6]; 1000 nM): 109%
cell viability (HepG2 [6]; 10000 nM): 103%
cell viability (Vero E6 [7]; 1 nM): 99.4%
cell viability (Vero E6 [7]; 10 nM): 94.5%
cell viability (Vero E6 [7]; 100 nM): 91.5%
cell viability (Vero E6 [7]; 1000 nM): 94.3%
cell viability (Vero E6 [7]; 10000 nM): 103%
cell viability (U2OS [8]; 1 nM): 103%
cell viability (U2OS [8]; 10 nM): 100%
cell viability (U2OS [8]; 100 nM): 101%
cell viability (U2OS [8]; 1000 nM): 94.7%
cell viability (U2OS [8]; 10000 nM): 101%
cell viability (Calu-3 [9]; 1 nM): 95.5%
cell viability (Calu-3 [9]; 10 nM): 94.3%
cell viability (Calu-3 [9]; 100 nM): 107%
cell viability (Calu-3 [9]; 1000 nM): 101%
cell viability (Calu-3 [9]; 10000 nM): 102%
cell viability (Caco-2 [10]; 1 nM): 99.7%
cell viability (Caco-2 [10]; 10 nM): 85.8%
cell viability (Caco-2 [10]; 100 nM): 99.2%
cell viability (Caco-2 [10]; 1000 nM): 86.6%
cell viability (Caco-2 [10]; 10000 nM): 94.8%
drug sensitivity score (HepG2 [11]): 0
drug sensitivity score (Vero E6 [12]): 0
drug sensitivity score (U2OS [13]): 0
drug sensitivity score (Calu-3 [14]): 0
drug sensitivity score (Caco-2 [15]): 0
